Values after ≈ are worked out from the molar mass of the structure shown. Values belong to the compound of their own block, whether it stands above or below them. *1 amine or outer side, *2 acyl side, *3 side chain or, on linkers, in order; H or OH if unused. Where a SMILES comes first, the peptide text is derived from it. Bridges are numbered along the chain shown (N, C = ends). [ ]: non-standard residue; d: D form. The star is where a group is joined. X1 = CC(C)=CCc1ccc(Cl)c2[nH]cc(CC(N[*:1])C(=O)[*:2])c12; Trp(7-Cl) = N[CH](Cc1c[nH]c2c(Cl)cccc12)C(=O)O; Malonyl = O=C(CC(=O)[*:2])[*:1]; Cya = N[CH](CS(=O)(=O)O)C(=O)O; dDab = NCC[C@@H](N)C(=O)O; Octanoyl = CCCCCCCC(=O)*; Orn = NCCC[C@H](N)C(=O)O; Dab = NCC[C@H](N)C(=O)O
How the values were obtained:
Escherichia coli [1] = test: Antibacterial activity against Escherichia coli by agar dilution method; type: functional
Escherichia coli [2] = test: Antibacterial activity against wild-type Escherichia coli; type: functional
Pseudomonas aeruginosa [3] = test: Antibacterial activity against Pseudomonas aeruginosa; type: functional
Staphylococcus aureus [4] = test: Antibacterial activity against Staphylococcus aureus; type: functional
Acinetobacter baumannii = test: Antibacterial activity against Acinetobacter baumannii; type: functional
[5] = Selectivity ratio of MIC for Staphylococcus epidermidis PAS9001 harboring SPase S29P mutant to MIC for Staphylococcus epidermidis RP62A; type: functional
[6] = system: Staphylococcus epidermidis; test: Antibacterial activity against Staphylococcus epidermidis PAS9001 harboring SPase S29P mutant by CLSI microbroth dilution assay; type: functional
[7] = system: Staphylococcus epidermidis; test: Antibacterial activity against Staphylococcus epidermidis RP62A harboring wild-type SPase by CLSI microbroth dilution method; type: functional
Escherichia coli [8] = test: Antibacterial activity against Escherichia coli PAS0232 harboring SPase P84S mutant by CLSI microbroth dilution assay; type: functional
Pseudomonas aeruginosa [9] = test: Antibacterial activity against Pseudomonas aeruginosa PAS2006 harboring SPase P84S mutant by CLSI microbroth dilution assay; type: functional
[10] = system: Staphylococcus epidermidis; test: Antibacterial activity against Staphylococcus epidermidis PAS8001 harboring SPase P29S mutant by CLSI microbroth dilution method; type: functional
[11] = Inhibition of Escherichia coli His6-tagged LpxD after 15 mins by fluorescence polarization assay
[12] = Inhibition of Escherichia coli LpxA after 15 mins by fluorescence polarization assay
Pseudomonas aeruginosa [13] = test: Antibacterial activity against Pseudomonas aeruginosa ATCC 27853 by microdilution method; type: functional
Escherichia coli [14] = test: Antibacterial activity against Escherichia coli after 16 to 20 hrs by agar well diffusion method; type: functional
Escherichia coli [15] = test: Antibacterial activity against tolC-deficit Escherichia coli in presence of human serum albumin; type: functional
Escherichia coli [16] = test: Antibacterial activity against tolC-deficit Escherichia coli measured after 16 hrs by serial dilution method; type: functional
Staphylococcus aureus [17] = test: Antibacterial activity against methicillin-resistant Staphylococcus aureus by CLSI broth dilution method; type: functional
Escherichia coli [18] = test: Antibacterial activity against acrAB-efflux pump deficit Escherichia coli; type: functional
Escherichia coli [19] = test: Antibacterial activity against wild-type Escherichia coli measured after 16 hrs by serial dilution method; type: functional
Pseudomonas aeruginosa [20] = test: Antibacterial activity against MexABCDXY-deficit Pseudomonas aeruginosa measured after 16 hrs by serial dilution method; type: functional
Pseudomonas aeruginosa [21] = test: Antibacterial activity against wild-type Pseudomonas aeruginosa measured after 16 hrs by serial dilution method; type: functional
Pseudomonas aeruginosa [22] = test: Potentiation of colistin-induced antibacterial activity against Pseudomonas aeruginosa PAO1 infected in BALB/c mouse assessed as log reduction in bacterial burden in lungs at 2.08 mg/kg, it measured after 6 hrs by serial dilution method; type: functional, Lung
Pseudomonas aeruginosa [23] = test: Antibacterial activity against Pseudomonas aeruginosa PAO1 measured after 16 to 20 hrs by microbroth dilution assay; type: functional
[24] = Hemolytic activity against human RBC; type: ADME, cell-based; settings: erythrocyte

MIC (Escherichia coli [1]): 6.25 µg/mL (≈ 10 µM)
Compound: CCC[C@@H]1OC(=O)[C@@H](C)C[C@H](C)CCCCC(=O)CCC[C@@H](CC)/C=C/C=C(\COC)CC[C@@H](O)[C@@H](O)C[C@H](O)CNC1=O

MIC (Pseudomonas aeruginosa [13]): 0.25 µg/mL (≈ 0.677 µM)
Compound: CC(C)(N)[C@H](NC(=O)c1ccc(C#CC#C[C@@H]2C[C@H]2CO)cc1)C(=O)NO [ACHN-975]

MIC (Escherichia coli [2]): 8 µg/mL (≈ 23.2 µM) | MIC (Escherichia coli [15]): 16 µg/mL | MIC (Escherichia coli [16]): < 0.063 µg/mL
Compound: Fc1ccc(COc2cccc(-c3n[nH]cc3-c3ccncc3)c2)cc1

MIC (Escherichia coli [2]): 16 µg/mL (≈ 83.2 µM) | MIC (Escherichia coli [18]): 8 µg/mL (≈ 41.6 µM)
Compound: Sc1ccccc1C1=NCCCN1

MIC (Escherichia coli [16]): > 32 µg/mL | MIC (Escherichia coli [19]): > 32 µg/mL | MIC (Pseudomonas aeruginosa [20]): 1 µg/mL (≈ 4.25 µM) | MIC (Pseudomonas aeruginosa [21]): 4 µg/mL (≈ 17 µM)
Compound: N=C(N)SCc1ccc(Cl)c(Cl)c1

MIC (Escherichia coli [2]): 32 µg/mL (≈ 95.4 µM) | MIC (Escherichia coli [15]): 4 µg/mL | MIC (Escherichia coli [16]): 0.25 µg/mL (≈ 0.745 µM)
Compound: CC(C)(C)c1nc(-c2ccc3c(c2)OCCO3)c(-c2ccncc2)[nH]1

MIC (Escherichia coli [1]): 3.12 µg/mL (≈ 4.98 µM)
Compound: CCC[C@@H]1OC(=O)[C@@H](C)C[C@H](C)CCCCC(=O)CCC[C@@H](CC)CC/C=C(\COC)CC[C@@H](O)[C@@H](O)C[C@H](O)CNC1=O

MIC (Escherichia coli [2]): 16 µg/mL (≈ 68 µM) | MIC (Escherichia coli [18]): 8 µg/mL (≈ 34 µM)
Compound: CN(C)c1ccc(C2=NCCCN2)c(S)c1

Continued, compound first:

Compound: CC[C@H](C)[C@@H]1NC(=O)[C@H](CCCNC(=N)N)NC(=O)[C@H](Cc2cc3ccccc3[nH]2)NC(=O)[C@@H]2CCCN2C(=O)[C@H]2CCCN2C(=O)[C@H](CCCNC(=N)N)NC(=O)[C@H](CCCNC(=N)N)NC(=O)[C@H](CC(C)C)NC(=O)[C@H](CCCNC(=N)N)NC(=O)[C@H](CCCCN)NC(=O)[C@H](Cc2c[nH]c3ccccc23)NC(=O)[C@@H](CCCNC(=N)N)NC(=O)[C@H]([C@@H](C)CC)NC(=O)[C@H](CCCNC(=N)N)NC1=O
MIC (Escherichia coli [2]): 0.25 µg/mL (≈ 0.127 µM) | MIC (Pseudomonas aeruginosa [3]): 4 µg/mL (≈ 2.03 µM) | MIC (Staphylococcus aureus [4]): 2 µg/mL (≈ 1.01 µM) | MIC (Acinetobacter baumannii): 1 µg/mL (≈ 0.507 µM)

Compound: CCCCCCCCCCCCCCCC(=O)N(C)[C@H](CO)C(=O)N[C@H](C)C(=O)NCC(=O)N(C)[C@@H]1C(=O)N[C@@H](C)C(=O)N[C@@H](C(=O)O)Cc2ccc(O)c(c2)-c2cc1ccc2O
Ratio [5]: 32 | MIC [6]: 8 µg/mL (≈ 9.08 µM) | MIC [7]: 0.25 µg/mL (≈ 0.284 µM) | MIC (Escherichia coli [8]): 4 µg/mL (≈ 4.54 µM) | MIC (Pseudomonas aeruginosa [9]): 8 µg/mL (≈ 9.08 µM) | MIC [10]: 2 µg/mL (≈ 2.27 µM)

Compound: H-TNLYMLPKWDIP-NH2
Kd [11]: 6 µM | Kd [12]: 20 µM

Compound: CCCCCCCC(=O)N[C@H](C(=O)N[C@@H](CO)C(=O)N[C@H]1CCNC(=O)[C@H]([C@@H](C)O)NC(=O)[C@H](CCN)NC(=O)[C@H](CCN)NC(=O)[C@H](CC(C)C)NC(=O)[C@@H](Cc2ccccc2)NC(=O)[C@H](CCN)NC1=O)[C@@H](C)O (Octanoyl-TS[Dab][Dab][dF]L[Dab][Dab]T; lactam 3-C)
MIC90 (Escherichia coli [14]): 1 µg/mL (≈ 0.929 µM)

Compound: CCCC(C)/C=C(/C)C(=O)OC(CCCCCCC/C=C/C(=O)NCCC(=O)NC(CS(=O)(=O)O)C(=O)N(C)C1C(=O)NC(C)C(=O)NC(C(=O)O)Cc2ccc(OS(=O)(=O)O)c(c2)-c2cc1cc(OS(=O)(=O)O)c2OC1O[C@H](C)[C@@H](O)[C@H](O)[C@@H]1O)CCC(C)C (some centres not stated)
MIC (Staphylococcus aureus [17]): 16 to 128 µg/mL (≈ 11.9 to 94.9 µM)

Compound: CC[C@H](C)[C@@H]1NC(=O)[C@H](Cc2c[nH]c3ccccc23)NC(=O)[C@H]([C@@H](C)O)NC(=O)[C@@H]2CCCN2C(=O)[C@H]2CCCN2C(=O)[C@H](CO)NC(=O)[C@H](C)NC(=O)[C@H](CCN)NC(=O)[C@H](CCN)NC(=O)[C@H](Cc2c[nH]c3ccccc23)NC(=O)[C@H](CCN)NC(=O)[C@@H](CCN)NC(=O)[C@H](CCCN)NC(=O)[C@H](CCN)NC1=O [MUREPAVADIN] (cyclo(TWI[Dab][Orn][dDab][Dab]W[Dab][Dab]AS[dP]P))
MIC (Pseudomonas aeruginosa [13]): 0.008 µg/mL (≈ 0.00515 µM)

Compound: CC(C)=CCc1ccc(Cl)c2[nH]cc(CC3NC(=O)C(Cc4c[nH]c5c(Cl)cccc45)NC(=O)C4CCCN4C(=O)C(CS(=O)(=O)O)NC(=O)C(NC(=O)C(NC(=O)C(C)NC(=O)CC(=O)O)C(C)C)COC(=O)C(CO)NC(=O)C(CC(C)C)NC(=O)C(C(C)C)NC3=O)c12 (configuration not stated) (Malonyl-AVS[Cya]P[Trp(7-Cl)][X1]VLS; ester 3-C; configuration not given here)
MIC (Staphylococcus aureus [17]): 0.5 to 128 µg/mL (≈ 0.357 to 91.4 µM)

Compound: CC[C@H](C)[C@H](NC(=O)[C@@H](N)Cc1ccccc1)C(=O)N[C@@H](CCCNC(=N)N)C(=O)N[C@@H](CC(C)C)C(N)=O (H-FIRL-NH2)
Activity (Pseudomonas aeruginosa [22]): 1 log10CFU/ml

Compound: C[C@@H](O)[C@H](NC(=O)c1ccc(C#Cc2ccc(CN3CCOCC3)cc2)cc1)C(=O)NO
MIC (Pseudomonas aeruginosa [23]): 1 µg/mL (≈ 2.29 µM)

Compound: CCCCCCCCCC[C@H]1OC(=O)CNC(=O)[C@H]([C@@H](C)O)NC(=O)[C@H](CO)NC(=O)[C@H]([C@H](C)CC)NC(=O)[C@H](CC(C)C)N(C)C(=O)[C@@H]1C
MIC (Escherichia coli [1]): 1.56 µg/mL (≈ 2.19 µM)

Compound: CC[C@H](C)[C@@H]1NC(=O)[C@H](Cc2c[nH]c3ccccc23)NC(=O)[C@H]([C@@H](C)O)NC(=O)[C@@H]2CCCN2C(=O)[C@H]2CCCN2C(=O)[C@H](CCN)NC(=O)[C@H](C)NC(=O)[C@H](CCN)NC(=O)[C@H](CCN)NC(=O)[C@H](Cc2c[nH]c3ccccc23)NC(=O)[C@H](CCN)NC(=O)[C@@H](CCN)NC(=O)[C@H](CCCCN)NC(=O)[C@H](CCN)NC1=O (cyclo(TWI[Dab]K[dDab][Dab]W[Dab][Dab]A[Dab][dP]P))
Activity [24]: > 100 µg/mL

— ChEMBL document CHEMBL3864123, “Drug discovery strategies to outer membrane targets in Gram-negative pathogens” (Bioorg Med Chem, 2016)
